Where “and” joins values, the source holds several entries; their conditions need not be identical. Equal entries are not always repeated. ± gives the uncertainty stated by the source.
Test: xn = mol fraction of the nth substance listed
Conditions: 101 kPa

CC(C)[C@H](N)C(=O)O + O
viscosity (293.15 K, x1 = 0.005375): 1.137 ± 0.024 mPa·s
viscosity (293.15 K, x1 = 0.007154): 1.185 ± 0.025 mPa·s
viscosity (293.15 K, x1 = 0.008925): 1.236 ± 0.026 mPa·s
viscosity (298.15 K, x1 = 0.0001): 0.9194 ± 0.043 mPa·s and 0.9194 ± 0.031 mPa·s
viscosity (298.15 K, x1 = 0.0004318): 0.9217 ± 0.043 mPa·s and 0.9217 ± 0.031 mPa·s
viscosity (298.15 K, x1 = 0.00045): 0.8955 ± 0.021 mPa·s
viscosity (298.15 K, x1 = 0.0006308): 0.9343 ± 0.044 mPa·s and 0.9343 ± 0.031 mPa·s
viscosity (298.15 K, x1 = 0.0009): 0.9038 ± 0.021 mPa·s
viscosity (298.15 K, x1 = 0.001048): 0.9493 ± 0.045 mPa·s and 0.9493 ± 0.031 mPa·s
viscosity (298.15 K, x1 = 0.00135): 0.9129 ± 0.021 mPa·s
viscosity (298.15 K, x1 = 0.001416): 0.9595 ± 0.045 mPa·s and 0.9595 ± 0.031 mPa·s
viscosity (298.15 K, x1 = 0.001787): 0.9689 ± 0.046 mPa·s and 0.9689 ± 0.031 mPa·s
viscosity (298.15 K, x1 = 0.0018): 0.9222 ± 0.021 mPa·s
viscosity (298.15 K, x1 = 0.002245): 0.9318 ± 0.021 mPa·s
viscosity (298.15 K, x1 = 0.002695): 0.9413 ± 0.022 mPa·s
viscosity (298.15 K, x1 = 0.003711): 0.9967 ± 0.047 mPa·s and 0.9967 ± 0.031 mPa·s
viscosity (298.15 K, x1 = 0.005362): 1.026 ± 0.048 mPa·s and 1.026 ± 0.031 mPa·s
viscosity (298.15 K, x1 = 0.007185): 1.05 ± 0.049 mPa·s and 1.05 ± 0.031 mPa·s
viscosity (303.15 K, x1 = 0.0004): 0.803 ± 0.007 mPa·s
viscosity (303.15 K, x1 = 0.00045): 0.8023 ± 0.018 mPa·s
viscosity (303.15 K, x1 = 0.0007): 0.808 ± 0.007 mPa·s
viscosity (303.15 K, x1 = 0.0009): 0.8101 ± 0.019 mPa·s
viscosity (303.15 K, x1 = 0.001): 0.814 ± 0.007 mPa·s and 0.821 ± 0.007 mPa·s
viscosity (303.15 K, x1 = 0.00135): 0.8187 ± 0.019 mPa·s
viscosity (303.15 K, x1 = 0.0018): 0.8274 ± 0.019 mPa·s
viscosity (303.15 K, x1 = 0.002245): 0.8364 ± 0.019 mPa·s
viscosity (303.15 K, x1 = 0.002695): 0.8456 ± 0.019 mPa·s
viscosity (303.15 K, x1 = 0.003592): 0.861 ± 0.018 mPa·s
viscosity (303.15 K, x1 = 0.005375): 0.8951 ± 0.019 mPa·s
viscosity (303.15 K, x1 = 0.007154): 0.9297 ± 0.02 mPa·s
viscosity (303.15 K, x1 = 0.008925): 0.9658 ± 0.02 mPa·s
viscosity (308.15 K, x1 = 0.0001): 0.7889 ± 0.037 mPa·s and 0.7889 ± 0.031 mPa·s
viscosity (308.15 K, x1 = 0.0004318): 0.7978 ± 0.038 mPa·s and 0.7978 ± 0.031 mPa·s
viscosity (308.15 K, x1 = 0.00045): 0.7239 ± 0.017 mPa·s
viscosity (308.15 K, x1 = 0.0006308): 0.8045 ± 0.038 mPa·s and 0.8045 ± 0.031 mPa·s
viscosity (308.15 K, x1 = 0.001048): 0.8147 ± 0.038 mPa·s and 0.8147 ± 0.031 mPa·s
viscosity (308.15 K, x1 = 0.00135): 0.7396 ± 0.017 mPa·s
viscosity (308.15 K, x1 = 0.001416): 0.8249 ± 0.039 mPa·s and 0.8249 ± 0.031 mPa·s
viscosity (308.15 K, x1 = 0.001787): 0.8389 ± 0.04 mPa·s and 0.8389 ± 0.031 mPa·s
viscosity (308.15 K, x1 = 0.0018): 0.7478 ± 0.017 mPa·s
viscosity (308.15 K, x1 = 0.002245): 0.7561 ± 0.017 mPa·s
viscosity (308.15 K, x1 = 0.002695): 0.7648 ± 0.017 mPa·s
viscosity (308.15 K, x1 = 0.003711): 0.8751 ± 0.041 mPa·s and 0.8751 ± 0.031 mPa·s
viscosity (308.15 K, x1 = 0.005362): 0.9003 ± 0.043 mPa·s and 0.9003 ± 0.031 mPa·s
viscosity (308.15 K, x1 = 0.007185): 0.9207 ± 0.043 mPa·s and 0.9207 ± 0.031 mPa·s
viscosity (313.15 K, x1 = 0.00045): 0.6573 ± 0.015 mPa·s
viscosity (313.15 K, x1 = 0.0009): 0.6645 ± 0.015 mPa·s
viscosity (313.15 K, x1 = 0.00135): 0.6722 ± 0.015 mPa·s
viscosity (313.15 K, x1 = 0.0018): 0.6799 ± 0.016 mPa·s
viscosity (313.15 K, x1 = 0.001804): 0.6773 ± 0.014 mPa·s
viscosity (313.15 K, x1 = 0.002245): 0.6878 ± 0.016 mPa·s
viscosity (313.15 K, x1 = 0.002695): 0.696 ± 0.016 mPa·s
viscosity (313.15 K, x1 = 0.003592): 0.7008 ± 0.015 mPa·s
viscosity (313.15 K, x1 = 0.005375): 0.7269 ± 0.015 mPa·s
viscosity (313.15 K, x1 = 0.007154): 0.752 ± 0.016 mPa·s
viscosity (318.15 K, x1 = 0.0001): 0.6823 ± 0.032 mPa·s and 0.6823 ± 0.031 mPa·s
viscosity (318.15 K, x1 = 0.0004318): 0.6985 ± 0.033 mPa·s and 0.6985 ± 0.031 mPa·s
viscosity (318.15 K, x1 = 0.00045): 0.6017 ± 0.014 mPa·s
viscosity (318.15 K, x1 = 0.0006308): 0.7009 ± 0.033 mPa·s and 0.7009 ± 0.031 mPa·s
viscosity (318.15 K, x1 = 0.001048): 0.7128 ± 0.034 mPa·s and 0.7128 ± 0.031 mPa·s
viscosity (318.15 K, x1 = 0.00135): 0.6159 ± 0.014 mPa·s
viscosity (318.15 K, x1 = 0.001416): 0.7308 ± 0.035 mPa·s and 0.7308 ± 0.031 mPa·s
viscosity (318.15 K, x1 = 0.001787): 0.7418 ± 0.035 mPa·s and 0.7418 ± 0.031 mPa·s
viscosity (318.15 K, x1 = 0.0018): 0.6233 ± 0.014 mPa·s
viscosity (318.15 K, x1 = 0.002245): 0.631 ± 0.015 mPa·s
viscosity (318.15 K, x1 = 0.002695): 0.6386 ± 0.015 mPa·s
viscosity (318.15 K, x1 = 0.003711): 0.7743 ± 0.037 mPa·s and 0.7743 ± 0.031 mPa·s
viscosity (318.15 K, x1 = 0.005362): 0.7995 ± 0.038 mPa·s and 0.7995 ± 0.031 mPa·s
viscosity (318.15 K, x1 = 0.007185): 0.8105 ± 0.038 mPa·s and 0.8105 ± 0.031 mPa·s
viscosity (323.15 K, x1 = 0.001804): 0.5656 ± 0.012 mPa·s
viscosity (323.15 K, x1 = 0.003592): 0.5841 ± 0.012 mPa·s
viscosity (323.15 K, x1 = 0.008925): 0.6454 ± 0.014 mPa·s

Source: the CheMixHub viscosity set
